From patent US20260258003A1, “SLACK-ACTIVATING COMPOUNDS AND THEIR MEDICAL USE” (Johann Wolfgang Goethe-Universität Frankfurt am Main, priority 2023, published 2026)

Assays:
[1] = system: DNFB-induced persistent itch behavior of mice; test: DNFB model of persistent itch (allergic contact dermatitis); format: in vivo; details: i.p. after the second DNFB exposure, vs vehicle
Description: Furthermore, the effect of Compound 6 in chronic itch was examined in a model of allergic contact dermatitis^31. In brief, the fur on the dorsolateral aspect of the neck was shaved under brief isoflurane anesthesia. Three to four days thereafter, the shaved skin area was painted with 100 μL of 0.15% 2,4-dinitrofluorobenzene (DNFB) in acetone/olive oil (3:1). After 10-11 days, the skin was shaved again and the DNFB solution was painted 3-4 days thereafter (i.e., two painting sessions 14 days apart). Ninety minutes after the second painting, mice were habituated for 15 min in separate plexiglass cylinders (30 cm diameter).
Compounds or vehicle (10% 2-hydroxypropyl-β-cyclodextrine in 0.9% saline) were i.p. administered, and 15 min thereafter spontaneous scratching was recorded over 30 min by videotaping (FIG. 10A).

[2] = system: histamine-induced scratching of mice; test: Histamine-induced acute itch model; format: in vivo; details: i.p.
Description: Further studies were conducted to assess the in vivo efficacy of Compound 6 and Compound 10 in mice. In detail, experiments were performed in 8 to 16 weeks old C57BL/6N mice (Charles River, Sulzfeld, Germany) and animals with a genetic deletion of Slack (Slack^−/− mice^27) of either sex. Animals were housed on a 12 h light/dark cycle with access to food and water ad libitum. All experiments adhered to the guidelines of the International Association for the Study of Pain and to the ARRIVE (Animal Research: Reporting on In Vivo Experiments) guidelines, and were approved by and conducted in accordance with the regulations of the local Animal Welfare authorities (Regierungspräsidium Darmstadt, Germany). All behavioral studies were conducted during the light cycle of the day at room temperature (20-24° C.) by an observer blinded for the treatment of the animals and/or their genotype.
Acute itch behavior of the mice was monitored using a histamine-based, chloroquine-based and SLIGRL-based acute itch behavior model. In these models, three to four days before the experiment day, the fur on the dorsolateral aspect of the neck was shaved under brief isoflurane anesthesia. On the testing day, mice were habituated for 30 min in separate plexiglass cylinders (30 cm diameter). […] Numbers of scratching bouts directed to the nape of the neck were assessed over 30 min by videotaping.

## O=C(O)COCCN1CCN(C2=Nc3ccccc3Oc3ccc(Cl)cc32)CC1 [Compound 6, 2-(2-(4-(2-Chlorodibenzo[b,f][1,4]oxazepin-11-yl)piperazin-1-yl)ethoxy) acetic acid]
[1]
  number of head shakes, DNFB model: significantly inhibited
  number of scratching bouts, DNFB model: significantly inhibited
[2]
  scratching evoked by s.c. histamine: not affected
